Measured values published in US11639350B2, “Heteroaryldihydropyrimidine derivatives and methods of treating hepatitis B infections” (Janssen Pharmaceutica NV, priority 2018, dated 2023).

Legend:
HBV = HBV inhibitory activity: HBV DNA in the culture medium of HepG2.2.15 cells by q-PCR; format: cell-based; details: HepG2.2.15 cells, 6 days of compound treatment, HBV DNA in culture medium by q-PCR, highest concentration 10 μM; read-out: EC50
Procedure, shortened: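 HepG2.2.15 cells in 2% FBS medium, 40,000 per well, treated 6 days with compound (medium refreshed once), eight 3-fold dilutions from 10 μM top. HBV DNA extracted from culture medium and quantified by q-PCR; EC50 averaged over repeats. Cytotoxicity run in parallel at 5,000 cells per well, top 100 μM, giving CC50.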

HepG2.2.15 cells = assay: Cytotoxicity determination in HepG2.2.15 cells (CCK-8); format: cell-based; details: 6 days of compound treatment, CCK-8, highest concentration 100 μM
Procedure, shortened: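 HepG2.2.15 cells seeded at 5,000 cells/well in 2% FBS medium, incubated overnight at 37° C., then treated 6 days with compounds (8 points, 3-fold dilutions, top 100 μM), medium refreshed once midway. CCK-8 added for 2.5 h; A450 read against 630 nm reference; CC50 calculated, averaged over repeats.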

| Structure (SMILES) | EC50 (HBV) [µM] | CC50 (HepG2.2.15 cells) [µM] |
| --- | --- | --- |
| CCOC(=O)C1=C([C@@H]2C[C@H]2CC(=O)O)NC(c2nccs2)=NC1c1ccc(F)cc1Cl (single isomer, unassigned) [Compound 93, 2-(trans-2-(6-(2-Chloro-4-fluorophenyl)-5-(ethoxycarbonyl)-2-(thiazol-2-yl)-3,6-dihydropyrimidin-4-yl)cyclopropyl)acetic Acid] | 0.507 | 92.5 |
| CCOC(=O)C1=C(C2CCN(S(=O)(=O)C3CC(C)(C(=O)O)C3)CC2)NC(c2nccs2)=NC1c1ccc(F)cc1Br (single isomer, unassigned) [Compound 282D, (cis)-3-((4-(6-(2-Bromo-4-fluorophenyl)-5-(ethoxycarbonyl)-2-(thiazol-2-yl)-3,6-dihydropyrimidin-4-yl)piperidin-1-yl)sulfonyl)-1-methylcyclobutanecarboxylic Acid] | 0.039 | 11.2 |
| CCOC(=O)C1=C(C2CCN(S(=O)(=O)C3CC(C)(C(=O)O)C3)CC2)NC(c2nccs2)=NC1c1ccc(F)c(F)c1Cl (stereo not drawn) [Compound 270B, (cis)-3-((4-(6-(2-Chloro-3,4-difluorophenyl)-5-(ethoxycarbonyl)-2-(thiazol-2-yl)-3,6-dihydropyrimidin-4-yl)piperidin-1-yl)sulfonyl)-1-methylcyclobutanecarboxylic Acid] | 0.017 | 10.3 |
| COC(=O)C1=C(C2CCN(S(=O)(=O)C3CC(C)(C(=O)O)C3)CC2)NC(c2nccs2)=NC1c1ccc(F)cc1Br (single isomer, unassigned) [Compound 410C, trans-3-((4-(6-(2-Bromo-4-fluorophenyl)-5-(methoxycarbonyl)-2-(thiazol-2-yl)-3,6-dihydropyrimidin-4-yl)piperidin-1-yl)sulfonyl)-1-methylcyclobutanecarboxylic Acid] | 0.016 | 24.7 |
| COC(=O)C1=C(C2CCC(C(=O)O)C2)NC(c2nccs2)=NC1c1ccc(F)cc1Cl (single isomer, unassigned) [Compound 72F, 3-(6-(2-Chloro-4-fluorophenyl)-5-(methoxycarbonyl)-2-(thiazol-2-yl)-3,6-dihydropyrimidin-4-yl)cyclopentanecarboxylic Acid] | 0.058 | 30 |
| CCOC(=O)C1=C(C2CCN(S(=O)(=O)CC3CC(C(=O)O)C3)CC2)NC(c2nccs2)=NC1c1ccc(F)c(F)c1Cl (stereo not shown) [Compound 480Y, 3-(((4-(6-(2-Chloro-3,4-difluorophenyl)-5-(ethoxycarbonyl)-2-(thiazol-2-yl)-3,6-dihydropyrimidin-4-yl)piperidin-1-yl)sulfonyl)methyl)cyclobutanecarboxylic Acid] | 0.011 | 10.2 |
| COC(=O)C1=C(C2CCC(=O)N2)NC(c2nccs2)=NC1c1cccc(F)c1Cl (single isomer, unassigned) [Compound 75D, Methyl 4-(2-chloro-3-fluorophenyl)-6-(5-oxopyrrolidin-2-yl)-2-(thiazol-2-yl)-1,4-dihydropyrimidine-5-carboxylate] | 0.045 | 10.2 |
| COC(=O)C1=C([C@H]2CC[C@H](C(=O)OC)CC2)NC(c2nccs2)=NC1c1ccc(F)cc1Cl (stereo partly shown) [Compound 18X] | 0.042 | 27.9 |
| COC(=O)C1=C(C2CCNC(=O)C2)NC(c2nccs2)=NC1c1ccc(F)cc1Cl (single isomer, unassigned) [Compound 3C, Methyl 4-(2-chloro-4-fluorophenyl)-6-(2-oxopiperidin-4-yl)-2-(thiazol-2-yl)-1,4-dihydro-pyrimidine-5-carboxylate] | 0.132 | 5.6 |
| COC(=O)C1=C(C2CCN(C)C(=O)C2)NC(c2nccs2)=NC1c1ccc(F)cc1Cl (single isomer, unassigned) [Compound 1B, Methyl 4-(2-chloro-4-fluorophenyl)-6-(1-methyl-2-oxopiperidin-4-yl)-2-(thiazol-2-yl)-1,4-dihydropyrimidine-5-carboxylate] | 0.096 | 13.6 |
| COC(=O)C1=C(C2CCC(NS(C)(=O)=O)C2)NC(c2nccs2)=NC1c1cccc(F)c1Cl (single isomer, unassigned) [Compound 61E, Methyl 4-(2-chloro-3-fluorophenyl)-6-(3-(methylsulfonamido)cyclopentyl)-2-(thiazol-2-yl)-1,4-dihydropyrimidine-5-carboxylate] | 0.358 | 21.7 |
| COC(=O)C1=C(C2CCC(NS(C)(=O)=O)C2)NC(c2nccs2)=NC1c1cccc(F)c1Cl (single isomer, unassigned) [Compound 61D, Methyl 4-(2-chloro-3-fluorophenyl)-6-(3-(methylsulfonamido)-cyclopentyl)-2-(thiazol-2-yl)-1,4-dihydropyrimidine-5-carboxylate] | 0.035 | 33.4 |
| COC(=O)C1=C(C2CCN(S(=O)(=O)CC(O)CO)CC2)NC(c2nccs2)=NC1c1ccc(F)cc1Cl (single isomer, unassigned) [Compound 305B, Methyl 4-(2-chloro-4-fluorophenyl)-6-(1-((2,3-dihydroxypropyl)sulfonyl)piperidin-4-yl)-2-(thiazol-2-yl)-1,4-dihydropyrimidine-5-carboxylate] | 0.025 | 34.5 |
| COC(=O)C1=C(C2CCC(NC(C)=O)C2)NC(c2nccs2)=NC1c1cccc(F)c1Cl (single isomer, unassigned) [Compound 62D, Methyl 6-(3-acetamidocyclopentyl)-4-(2-chloro-3-fluorophenyl)-2-(thiazol-2-yl)-1,4-dihydropyrimidine-5-carboxylate] | 0.892 | 75.1 |
| CCOC(=O)C1=C(C2CCN(S(=O)(=O)C3CC(C)(C(=O)O)C3)CC2)NC(c2nccs2)=NC1c1ccc(F)cc1Cl (stereo not drawn) [Compound 272A, (trans)-3-((4-(6-(2-Chloro-4-fluorophenyl)-5-(ethoxycarbonyl)-2-(thiazol-2-yl)-3,6-dihydropyrimidin-4-yl)piperidin-1-yl)sulfonyl)-1-methylcyclobutanecarboxylic Acid] | 0.017 | 16.6 |
| COC(=O)C1=C(C2CCN(S(=O)(=O)CC3(C)CCC(C(=O)O)CC3)CC2)NC(c2nccs2)=NC1c1ccc(F)cc1Cl (single isomer, unassigned) [Compound 450A, (cis)-4-(((4-(6-(2-Chloro-4-fluorophenyl)-5-(methoxycarbonyl)-2-(thiazol-2-yl)-3,6-dihydropyrimidin-4-yl)piperidin-1-yl)sulfonyl)methyl)-4-methylcyclohexanecarboxylic Acid] | 0.017 | 12.8 |
| COC(=O)C1=C(C2CCN(S(C)(=O)=O)CC2)NC(c2nccs2)=NC1c1ccc(F)cc1Br (single isomer, unassigned) [Compound 120B, Methyl 4-(2-bromo-4-fluorophenyl)-6-(1-(methylsulfonyl)-piperidin-4-yl)-2-(thiazol-2-yl)-1,4-dihydropyrimidine-5-carboxylate] | 0.154 | 16.3 |
| COC(=O)C1=C(C2CCCC(C(=O)O)CC2)NC(c2nccs2)=NC1c1ccc(F)cc1Cl (single isomer, unassigned) [Compound 95C, 4-(6-(2-Chloro-4-fluorophenyl)-5-(methoxycarbonyl)-2-(thiazol-2-yl)-3,6-dihydropyrimidin-4-yl)cycloheptanecarboxylic Acid] | 0.117 | 33.1 |
| COC(=O)C1=C(C2CCN(S(=O)(=O)C3CC(C)(C(=O)OC)C3)CC2)NC(c2nccs2)=NC1c1ccc(F)c(F)c1Cl (single isomer, unassigned) [Compound 323D, cis-methyl 4-(2-chloro-3,4-difluorophenyl)-6-(1-((3-(methoxycarbonyl)-3-methylcyclobutyl)sulfonyl)piperidin-4-yl)-2-(thiazol-2-yl)-1,4-dihydropyrimidine-5-carboxylate] | 0.03 | 28.6 |
| COC(=O)C1=C(C2CCCOC2)NC(c2nccs2)=NC1c1ccc(F)cc1Cl (single isomer, unassigned) [Compound 48A, Methyl 4-(2-chloro-4-fluorophenyl)-6-(tetrahydro-2H-pyran-3-yl)-2-(thiazol-2-yl)-1,4-dihydropyrimidine-5-carboxylate] | 0.565 | 46.9 |
| CCOC(=O)C1=C(C2CCN(S(=O)(=O)[C@H]3C[C@](C)(C(=O)O)C3)CC2)NC(c2nccs2)=NC1c1ccc(F)c(F)c1Cl (stereo partly drawn) [Compound 270A, (trans)-3-((4-(6-(2-Chloro-3,4-difluorophenyl)-5-(ethoxycarbonyl)-2-(thiazol-2-yl)-3,6-dihydropyrimidin-4-yl)piperidin-1-yl)sulfonyl)-1-methylcyclobutanecarboxylic Acid] | 0.012 | 9.2 |
| COC(=O)C1=C(C2CCN(S(=O)(=O)C3CCC(C)(C(=O)O)CC3)CC2)NC(c2nccs2)=NC1c1ccc(F)c(F)c1Cl (single isomer, unassigned) [Compound 210A, (trans)-4-((4-(6-(2-chloro-3,4-difluorophenyl)-5-(methoxycarbonyl)-2-(thiazol-2-yl)-3,6-dihydropyrimidin-4-yl)piperidin-1-yl)sulfonyl)-1-methylcyclohexanecarboxylic Acid] | 0.024 | 6 |
| COC(=O)C1=C(C2CCCN(S(C)(=O)=O)C2)NC(c2nccs2)=NC1c1ccc(F)cc1Cl (single isomer, unassigned) [Compound 33C, Methyl 4-(2-chloro-4-fluorophenyl)-6-(1-(methylsulfonyl)piperidin-3-yl)-2-(thiazol-2-yl)-1,4-dihydropyrimidine-5-carboxylate] | 0.484 | 37.7 |
